Key:
Type in all cases: in vivo
Design in all cases: scale not given here
[1] = tested on: Echinochloa oryzicola Vasing; assay: Herbicidal effects in paddy field soil treatment (Test Example 1); conditions: for Herbicidal effects index, Echinochloa oryzicola Vasing: paddy field soil treatment, 1000 g of the active ingredient per hectare, wettable powder added dropwise on water surface, 21st day after treatment; for herbicidal effect (index) on Echinochloa oryzicola Vasing: paddy field soil treatment (Test Example 1), criteria of Table 138
In short: (§1)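 Application rate was 1000 g active ingredient per hectare, delivered as a diluted wettable powder onto the surface of 3 cm flood water, the day after seeds were sown in paddy soil. Effects were rated 21 days later.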

[2] = tested on: Monochoria vaginalis (Burm. f.) Presl var. plantaginea (Roxb.) Solms-Laub.; assay: as above; conditions: for Herbicidal effects index, Monochoria vaginalis (Burm. f.) Presl var. plantaginea (Roxb.) Solms-Laub.: paddy field soil treatment, 1000 g of the active ingredient per hectare, wettable powder added dropwise on water surface, 21st day after treatment; for herbicidal effect (index) on Monochoria vaginalis (Burm. f.) Presl var. plantaginea (Roxb.) Solms-Laub.: paddy field soil treatment (Test Example 1), criteria of Table 138
In short: as §1

[3] = tested on: Scirpus juncoides Roxb. var. ohwianus. T. Koyama; assay: as above; conditions: for Herbicidal effects index, Scirpus juncoides Roxb. var. ohwianus. T. Koyama: paddy field soil treatment, 1000 g of the active ingredient per hectare, wettable powder added dropwise on water surface, 21st day after treatment; for herbicidal effect (index) on Scirpus juncoides Roxb. var. ohwianus. T. Koyama: paddy field soil treatment (Test Example 1), criteria of Table 138
In short: as §1

[4] = tested on: Abutilon theophrasti medicus; assay: Herbicidal effects in upland field soil treatment (Test Example 2); conditions: 1000 g active ingredient per hectare, 21st day after treatment, criteria of Table 138
In short: (§2)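 A wettable powder formulation, diluted with water, is applied to the soil surface after sowing and covering seeds in upland field soil, at a rate of 1000 g active ingredient per hectare. After greenhouse growth, herbicidal activity is graded by criteria at 21 days.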

Amaranthus viridis L. [5] = assay: as above; conditions: 1000 g active ingredient per hectare, 21st day after treatment, criteria of Table 138
In short: as §2

[6] = tested on: Abutilon theophrasti medicus; assay: Herbicidal effects in upland field foliar treatment (Test Example 3); conditions: criteria of Table 138; for herbicidal effects on Abutilon theophrasti medicus: 1000 g of the active ingredient per hectare, 14th day after the treatment, wettable powder; for herbicidal effect (index) on Abutilon theophrasti medicus: 1000 g active ingredient per hectare, 14th day after treatment
Method: (§3) Test Example 3 Test on Herbicidal Effects in Upland Field Foliar Treatment A 80-cm^2 plastic pot was filled with upland field soil. Seeds of Echinochloa crus-galli (L.) P. Beauv. var. crus-galli, Abutilon theophrasti medicus and Amaranthus viridis L. were sowed, and the plants were grown for two weeks in a greenhouse. A wettable powder formulation prepared according to Preparation Example 1 was diluted with water, and was sprayed with a small sprayer to perform foliar application over the entirety of plants from the upper side, in an amount equivalent to 1000 liters per hectare, such that 1000 g of the active ingredient per hectare was applied. Thereafter, the plants were grown in a greenhouse, and on the 14th day after the treatment, the herbicidal effects were investigated according to the criteria described in the Table 138 shown above.

Amaranthus viridis L. [7] = assay: as above; conditions: criteria of Table 138; for herbicidal effects on Amaranthus viridis L.: 1000 g of the active ingredient per hectare, 14th day after the treatment, wettable powder; for herbicidal effect (index) on Amaranthus viridis L.: 1000 g active ingredient per hectare, 14th day after treatment
Method: as §3

[8] = tested on: Echinochloa crus-galli (L.) P. Beauv. var. crus-galli; assay: as above; conditions: criteria of Table 138; for herbicidal effects on Echinochloa crus-galli (L.) P. Beauv. var. crus-galli: 1000 g of the active ingredient per hectare, 14th day after the treatment, wettable powder; for herbicidal effect (index) on Echinochloa crus-galli (L.) P. Beauv. var. crus-galli: 1000 g active ingredient per hectare, 14th day after treatment
Method: as §3

Row | SMILES | Herbicidal effects index, Echinochloa oryzicola Vasing [1] | Herbicidal effects index, Monochoria vaginalis (Burm. f.) Presl var. plantaginea (Roxb.) Solms-Laub. [2] | Herbicidal effects index, Scirpus juncoides Roxb. var. ohwianus. T. Koyama [3] | herbicidal effect (index) on Abutilon theophrasti medicus [4] | herbicidal effect (index) on Amaranthus viridis L. (Amaranthus viridis L. [5]) | herbicidal effects on Abutilon theophrasti medicus [6] | herbicidal effects on Amaranthus viridis L. (Amaranthus viridis L. [7]) | herbicidal effects on Echinochloa crus-galli (L.) P. Beauv. var. crus-galli [8] | herbicidal effect (index) on Echinochloa oryzicola Vasing [1] | herbicidal effect (index) on Monochoria vaginalis (Burm. f.) Presl var. plantaginea (Roxb.) Solms-Laub. [2] | herbicidal effect (index) on Scirpus juncoides Roxb. var. ohwianus. T. Koyama [3] | herbicidal effect (index) on Abutilon theophrasti medicus [6] | herbicidal effect (index) on Amaranthus viridis L. (Amaranthus viridis L. [7]) | herbicidal effect (index) on Echinochloa crus-galli (L.) P. Beauv. var. crus-galli [8]
1 | O=C1CCCC(O)=C1C(=O)c1nc2ccccc2n(-c2ccc3c(c2)CCCC3)c1=O [II-223] | 5 | 5 | 5 | 4 | 5 | 5 | 5 | 5 | – | – | – | – | – | –
2 | CC(C)c1ccc(-n2c(=O)c(C(=O)C3=C(O)CCCC3=O)nc3cccnc32)cc1 [IV-30] | 5 | 5 | 5 | 4 | 5 | 4 | 5 | 5 | – | – | – | – | – | –
3 | COc1cccc(-n2c(=O)c(C(=O)C3=C(O)CCCC3=O)nc3cccnc32)c1 [IV-57] | – | – | – | 5 | 5 | 5 | 5 | 4 | 4 | 5 | 5 | – | – | –
4 | CCn1c(=O)c(C(=O)C2=C(O)CCCC2=O)nc2cccnc21 [III-7] | 5 | 5 | 5 | 5 | 5 | 5 | 5 | 4 | – | – | – | – | – | –
5 | COc1ccc(-n2c(=O)c(C(=O)C3=C(O)CC(C)(C)CC3=O)nc3ccccc32)cc1 [II-64] | 5 | 5 | 4 | 4 | 5 | 5 | 5 | 5 | – | – | – | – | – | –
6 | Cc1cc(-n2c(=O)c(C(=O)C3=C(O)C(C)(C)C(=O)C(C)(C)C3=O)nc3ccccc32)no1 [I-149] | 5 | 5 | 4 | 5 | 5 | – | – | – | – | – | – | 5 | 5 | 5
7 | Cc1cc(-n2c(=O)c(C(=O)C3=C(O)CCCC3=O)nc3ccccc32)sn1 [I-156] | 5 | 5 | 5 | 5 | 5 | – | – | – | – | – | – | 5 | 5 | 5
8 | COc1ccc(-n2c(=O)c(C(=O)C3=C(O)CCCC3=O)nc3cccnc32)cc1 [IV-62, 2-(2-hydroxy-6-oxo-1-cyclohexenecarbonyl)-4-(4-methoxyphenyl)-pyrido[2,3-b]pyrazin-3(4H)-one] | – | – | – | 5 | 5 | 5 | 5 | 5 | 5 | 5 | 5 | – | – | –
9 | O=C1CCCC(O)=C1C(=O)c1nc2cccnc2n(-c2ccccc2C(F)(F)F)c1=O [IV-34] | 5 | 5 | 5 | 5 | 5 | 5 | 5 | 5 | – | – | – | – | – | –
10 | COc1ccccc1-n1c(=O)c(C(=O)C2=C(O)CCCC2=O)nc2cccnc21 [IV-52] | – | – | – | 5 | 4 | 5 | 5 | 5 | 5 | 5 | 5 | – | – | –
11 | Cn1c(=O)c(C(=O)C2=C(O)CCCC2=O)nc2cccnc21 [III-2] | 5 | 5 | 5 | 5 | 5 | 5 | 5 | 5 | – | – | – | – | – | –
12 | CC(CCn1c(=O)c(C(=O)C2=C(O)CCCC2=O)nc2cccnc21)=C(F)F [III-232] | 5 | 5 | 5 | 5 | 5 | 5 | 5 | 5 | – | – | – | – | – | –
13 | O=C1CCCC(O)=C1C(=O)c1nc2cccnc2n(COCC(F)(F)F)c1=O [III-59] | 5 | 5 | 5 | 5 | 5 | 5 | 5 | 5 | – | – | – | – | – | –
14 | O=C1CCCC(O)=C1C(=O)c1nc2cccnc2n(-c2cccc(Cl)c2)c1=O [IV-11] | 5 | 5 | 5 | 5 | 5 | 5 | 5 | 5 | – | – | – | – | – | –
15 | CCc1cccc(-n2c(=O)c(C(=O)C3=C(O)CCCC3=O)nc3cccnc32)c1 [IV-23] | 5 | 5 | 5 | 5 | 5 | 4 | 5 | 5 | – | – | – | – | – | –
16 | O=C1CCCC(O)=C1C(=O)c1nc2ccccc2n(-c2cccc3ccccc23)c1=O [I-263] | 5 | 5 | 5 | 5 | 5 | – | – | – | – | – | – | 5 | 5 | 5
17 | O=C1CCCC(O)=C1C(=O)c1nc2ccccc2n(-c2ccccc2Cl)c1=O [II-9] | 5 | 5 | 5 | 5 | 4 | – | – | – | – | – | – | 5 | 5 | 5

— patent US8389523B2, “Substituted quinoxaline and an agrochemical composition thereof” (Kumiai Chemical Industry Co., Ltd., priority 2007, dated 2013)
